Results reported in patent US11274332B2, “Methods of administering 3,4-diaminopyridine” (SERB SA, priority 2011, dated 2022).
Read-outs that look alike come from different tables or passages of the source.

Assay: Example 18 Part 1: single ascending dose PK (5-30 mg) in slow and fast acetylators
Assay type: in vivo, human
Settings: for half-life / Cmax: both sexes, human, plasma; for half-life: oral, 5-30 mg, read-out: Mean terminal elimination half-lives; for Cmax: po, single oral doses 5 to 30 mg, read-out: mean Cmax, range over doses
Procedure: The following method was used to analyze concentrations of 3,4-diaminopyridine and N-(4-aminopyridin-3-yl)acetamide in plasma and urine samples for the experiments in Example 18. In the LC/MS/MS method, the human plasma and urine samples were extracted using acetonitrile containing 0.1% formic acid. Samples were analyzed by using HPLC with positive ion electrospray MS/MS detection. The column was an Atlantis HILIC Silica column (3 μm, 3×50 mm) at a temperature of 40° C. Mobile phase A was water containing ammonium formate (20 mM) and 0.1% formic acid. Mobile phase B was acetonitrile/isopropanol (90/10; v/v) containing 0.1% formic acid. The flow rate was 0.90 mL/minute. The gradient conditions for human plasma and urine samples were as follows:
The LC/MS/MS method was validated to quantify 3,4-DAP in human plasma in the linear calibration range of 0.500 to 500 ng/mL and from 1.00 to 1000 ng/mL for the 3-N-acetyl metabolite.
The primary objective of the study was to assess the safety and tolerability of 3,4-DAP phosphate after single and multiple doses. The secondary objectives of the study were • Part 1 only: To determine the dose-related PK profile of amifampridine and of 3-N-acetyl amifampridine after single, escalating doses of 3,4-DAP phosphate • Part 2 only: To assess the steady-state plasma PK and accumulation of amifampridine and of 3-N-acetyl amifampridine over multiple days of dosing with 3,4-DAP phosphate An exploratory objective was to examine the overall activity of the N-acetyl transferase enzymes on the metabolism of amifampridine by assessing the PK of amifampridine and 3-N-acetyl amifampridine with phenotypic acetylation activity and genotyping determination of NAT2 gene polymorphisms. Study Design and Plan
This open-label study in healthy subjects (male and female) was conducted in 2 parts. A total of 26 healthy male and female subjects, 12 in Part 1 (at least 5 of each sex), 4 in Part 2 Group 1, and 10 in Part 2 Group 2 (at least 4 of each sex) were enrolled into the study. The same subjects were not enrolled to participate in both parts. Subjects in Part 2 were dosed only after all subjects of Part 1 completed dosing and at least 24-hours of follow-up safety evaluation after the last dose were completed.
All subjects were characterized for their metabolic acetylation phenotype and NAT2 genotype in order to divide subjects into two groups of acetylators. Volunteers were genetically typed for highly variant alleles of the N-acetyl transferase 2 enzyme (NAT2) domain on chromosome 8 (according to Example 16) and were phenotyped for acetylation rates with a caffeine challenge test (according to Example 15a). Approximately equal numbers of slow and fast acetylators (as defined by a caffeine challenge test in Example 15a) were enrolled in each group. In Part 2, very slow acetylators with NAT2 activity (ratio 1, Example 15a) below 0.06 were excluded from participation in the study. In each part of the study, subjects were assessed for PK, safety, and tolerability and all doses were administered within 30 min of ingestion of a meal or a snack.
Part 1 was a dose-proportionality study in 12 healthy subjects each receiving 4 ascending single oral doses of 3,4-DAP phosphate in a sequential manner (5 mg, 10 mg, 20 mg, and 30 mg). For all 12 subjects, the first 3 doses of oral 3,4-DAP phosphate (5-20 mg) were administered on 3 consecutive days (Days 1-3). Two fast and two slow acetylators (as defined by a caffeine challenge test in Example 15a) were selected as the first 4 enrolled subjects (sentinel subjects). For the 2 fast acetylators the 30 mg dose was administered on Day 4. […] Safety and tolerability data collected for all 4 subjects were reviewed and the safety and tolerability results of the 30 mg dose for these 4 sentinel subjects were acceptable. The 30 mg dose was given to the remaining 8 non-sentinel subjects on Day 7. […]

SMILES: Nc1ccncc1N [3,4-DAP, 3,4-diaminopyridine]
- Mean AUC0-t Slow/fast Ratio (5 mg single dose): 10.4
- Mean CL/F Slow/fast Ratio (5 mg single dose): 0.114
- Mean Cmax Slow/fast Ratio (5 mg single dose): 4.50
- Mean t1/2 Slow/fast Ratio (5 mg single dose): 3.68
- Mean AUC0-t Slow/fast Ratio (10 mg single dose): 6.94
- Mean CL/F Slow/fast Ratio (10 mg single dose): 0.163
- Mean Cmax Slow/fast Ratio (10 mg single dose): 3.47
- Mean t1/2 Slow/fast Ratio (10 mg single dose): 2.15
- Mean AUC0-t Slow/fast Ratio (20 mg single dose): 5.75
- Mean CL/F Slow/fast Ratio (20 mg single dose): 0.186
- Mean Cmax Slow/fast Ratio (20 mg single dose): 3.50
- Mean t1/2 Slow/fast Ratio (20 mg single dose): 2.38
- Mean AUC0-t Slow/fast Ratio (30 mg single dose): 5.29
- Mean CL/F Slow/fast Ratio (30 mg single dose): 0.196
- Mean Cmax Slow/fast Ratio (30 mg single dose): 3.51
- Mean t1/2 Slow/fast Ratio (30 mg single dose): 1.88
- half-life (fast acetylators): 0.603 to 1.65 h
- half-life (slow acetylators): 2.22 to 3.11 h
- Cmax (fast acetylator phenotype): 3.98 to 25.5 ng/mL
- Cmax (slow acetylator phenotype): 17.9 to 89.6 ng/mL
- AUC increase over 6-fold dose range (5 to 30 mg) (fast acetylators): 15.1 fold
- Cmax increase over 6-fold dose range (5 to 30 mg) (fast acetylators): 6.41 fold
- AUC increase over 6-fold dose range (5 to 30 mg) (slow acetylators): 7.64 fold
- Cmax increase over 6-fold dose range (5 to 30 mg) (slow acetylators): 5.01 fold
